# According to paper PMC3589648, “2D- and 3D-QSAR studies of a series of benzopyranes and benzopyrano[3,4b][1,4]-oxazines as inhibitors of the multidrug transporter P-glycoprotein” (Journal of Computer-Aided Molecular Design, 2013):
# Where two headings read alike, the source gives them in different places.
# Molecular target: T1, P-glycoprotein (P-gp) (Homo sapiens, UniProt P08183)
# T1 construct: The resistant CEM/vcr1000 line was obtained by stepwise selection in vincristine containing medium; endogenous in cells; host or cells: CCRF-CEM vcr1000 (CEM/vcr1000), a human T-lymphoblast line made multidrug resistant by vincristine selection
# T1 sequence (P08183 whole entry): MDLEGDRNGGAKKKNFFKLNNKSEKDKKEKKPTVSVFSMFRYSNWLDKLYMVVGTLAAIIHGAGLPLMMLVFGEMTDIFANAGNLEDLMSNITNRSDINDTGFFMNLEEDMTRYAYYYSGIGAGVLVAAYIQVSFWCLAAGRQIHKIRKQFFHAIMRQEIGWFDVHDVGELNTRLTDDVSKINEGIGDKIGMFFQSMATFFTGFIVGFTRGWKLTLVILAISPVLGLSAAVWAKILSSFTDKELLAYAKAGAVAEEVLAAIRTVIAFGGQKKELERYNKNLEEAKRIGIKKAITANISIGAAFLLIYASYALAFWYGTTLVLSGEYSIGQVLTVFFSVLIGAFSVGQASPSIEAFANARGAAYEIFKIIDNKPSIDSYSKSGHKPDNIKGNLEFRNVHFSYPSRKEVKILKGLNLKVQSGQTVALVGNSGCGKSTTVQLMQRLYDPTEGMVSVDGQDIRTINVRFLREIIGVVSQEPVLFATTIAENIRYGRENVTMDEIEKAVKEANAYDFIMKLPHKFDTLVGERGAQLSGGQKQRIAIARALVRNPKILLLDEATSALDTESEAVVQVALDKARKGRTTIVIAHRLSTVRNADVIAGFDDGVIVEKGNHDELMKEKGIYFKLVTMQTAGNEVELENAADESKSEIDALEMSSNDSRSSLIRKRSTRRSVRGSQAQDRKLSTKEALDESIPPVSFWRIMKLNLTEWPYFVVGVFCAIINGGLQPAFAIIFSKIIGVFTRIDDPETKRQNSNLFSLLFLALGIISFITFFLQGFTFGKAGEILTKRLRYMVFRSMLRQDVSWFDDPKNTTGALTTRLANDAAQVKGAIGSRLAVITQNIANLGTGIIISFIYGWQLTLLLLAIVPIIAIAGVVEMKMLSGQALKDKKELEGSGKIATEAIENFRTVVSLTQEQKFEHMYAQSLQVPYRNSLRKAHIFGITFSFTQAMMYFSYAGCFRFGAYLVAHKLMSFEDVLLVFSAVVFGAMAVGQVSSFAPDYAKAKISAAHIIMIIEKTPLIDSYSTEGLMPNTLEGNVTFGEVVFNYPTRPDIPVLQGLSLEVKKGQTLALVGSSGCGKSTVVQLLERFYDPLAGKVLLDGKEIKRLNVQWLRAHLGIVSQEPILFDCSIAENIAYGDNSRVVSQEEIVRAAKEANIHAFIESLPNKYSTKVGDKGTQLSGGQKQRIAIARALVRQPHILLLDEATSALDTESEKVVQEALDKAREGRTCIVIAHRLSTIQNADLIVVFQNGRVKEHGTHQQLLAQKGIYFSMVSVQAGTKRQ
# Experiment: Daunorubicin efflux inhibition in multidrug resistant CCRF-CEM vcr1000 cells
# Type: cell-based
# Conditions: for factor more active than corresponding unsubstituted analogs 6a and 6b: N-methylated L-valine analogues versus secondary amines
# Experimental: Biological activity of target compounds 5a–22b was assessed using the daunorubicin efflux protocol as described previously. Briefly, multidrug resistant CCRF-CEM vcr 1,000 cells were incubated with daunorubicin and the decrease in mean cellular fluorescence in dependence of time was measured in presence of various concentrations of the modulator. IC50 values were calculated from the concentration–response curve of efflux V max /K m versus concentration of the modulator. Thus, the effect of different modulators on the transport rate is measured in a direct functional assay. Values are given in Table 1 and are the mean of at least three independently performed experiments. Generally, inter experimental variation was below 20 %.
# The human T-lymphoblast cell line CCRF-CEM and the multidrug resistant CEM/vcr1000 cell line were provided by V. Gekeler (Byk Gulden, Konstanz, Germany). The resistant CEM/vcr1000 line was obtained by stepwise selection in vincristine containing medium. Cells were kept under standard culture conditions (RPMI1640 medium supplemented with 10% fetal calf serum). P-gp-expressing resistant cell line was cultured in presence of 1000 ng/mL vincristine. One week prior to the experiments cells were transferred into medium without selective agents or antibiotics. Briefly, cells were pelleted, the supernatant was removed by aspiration and cells were resuspended at a density of 1 x 10^6/ mL in PRMI1640 medium containing 3µmol/l daunomycin. Cell suspensions were incubated at 37°C for 30 min. After this time a steady state of daunorubicin accumulation was reached. Tubes were chilled on ice and cells were pelleted at 500 x g. Cells were washed once in RPMI1640 medium to remove extracellular daunorubicin. […] Generally, 8 serial dilutions were tested for each modulator. After 1, 2, 3 and 4 min aliquots of the incubation mixture were drawn and pipetted into 4 volumes of ice cold stop solution (RPMI1640 medium containing verapamil at a final concentration of 100 µM). Parental CCRF-CEM cells were used to correct for simple membrane diffusion, which was less than 3% of the efflux rates observed in resistant cells. Samples drawn at the respective time points were kept in an ice water bath and measured within one hour on a Becton Dickinson FACS Calibur (Becton Dickinson, Heidelberg, Germany) flow cytometer as described. Dose response curves were fitted to the data points using non-linear least squares and IC50 values were calculated as described by Chiba et al. […] A CV of below 20% was obtained in all determinations.
# [1] = SM Table 2, logarithm of the measured IC50 (μM) of Table 1
# [2] = inhibition of P-gp mediated daunorubicin efflux, CCRF-CEM vcr1000 cells, mean of at least three experiments, read-out: IC50 μM ± SD
# [3] = SM Table 2, logarithm of the measured IC50 (μM) of Table 1, read-out: Exp. LogIC50 (converted)
smiles,measurement,setting,value
CC(C)[C@@H](N[C@H]1c2cc(C#N)ccc2OC(C)(C)[C@@H]1O)C(=O)OC(C)(C)C [10b],Exp. LogIC50,[1],-0.13
same,IC50,[2],1.34 ± 0.08 µM
"CC(C)[C@H]1CO[C@H]2[C@H](N1)c1cc(C#N)ccc1OC2(C)C [21a, (2S,4aS,10bR)-2-isopropyl-5,5-dimethyl-1,4a,5,10b-tetrahydro-3H [1]benzopyrano[3,4-b][1,4]oxazine-9-carbonitril]",IC50,[3],49 µM
same,IC50,[2],48.8 ± 0.09 µM
CC1(C)Oc2ccc(C#N)cc2[C@@H]2N[C@@H](Cc3ccccc3)C(=O)O[C@H]21 [14b],Exp. LogIC50,[1],-2.41
same,IC50,[2],259.78 ± 0.06 µM
CC(C)(C)OC(=O)[C@H](Cc1ccccc1)N[C@H]1c2cc(C#N)ccc2OC(C)(C)[C@@H]1O [7b],Exp. LogIC50,[1],0.11
same,IC50,[2],0.77 ± 0.04 µM
CC(C)[C@@H](CO)N[C@H]1c2cc(C#N)ccc2OC(C)(C)[C@@H]1O [19b],Exp. LogIC50,[1],-2.01
same,IC50,[2],102.6 ± 0.15 µM
CC(C)[C@@H](CO)N[C@@H]1c2cc(C#N)ccc2OC(C)(C)[C@H]1O [19a],Exp. LogIC50,[1],-1.73
same,IC50,[2],54.05 ± 0.31 µM
CC(C)[C@H](N[C@@H]1c2cc(C#N)ccc2OC(C)(C)[C@H]1O)C(=O)OC(C)(C)C [6a],Exp. LogIC50,[1],-0.38
same,IC50,[2],2.4 ± 0.03 µM
CC(C)[C@@H](CCl)N(C)[C@@H]1c2cc(C#N)ccc2OC(C)(C)[C@H]1O [22a],Exp. LogIC50,[1],-1.55
same,IC50,[2],35.22 ± 0.02 µM
CC(C)[C@@H]1C(=O)O[C@@H]2[C@H](c3cc(C#N)ccc3OC2(C)C)N1C [18b],IC50,[3],27.5 µM
same,IC50,[2],27.84 ± 0.02 µM
CC(C)[C@@H](CO)N(C)[C@H]1c2cc(C#N)ccc2OC(C)(C)[C@@H]1O [20b],Exp. LogIC50,[1],-0.83
same,IC50,[2],6.84 ± 0.15 µM
CC(C)(C)OC(=O)[C@H](Cc1ccccc1)N[C@@H]1c2cc(C#N)ccc2OC(C)(C)[C@H]1O [7a],Exp. LogIC50,[1],0.26
same,IC50,[2],0.55 ± 0.02 µM
CC(C)[C@H]1C(=O)O[C@H]2[C@@H](c3cc(C#N)ccc3OC2(C)C)N1C [16a],IC50,[3],47.9 µM
same,IC50,[2],47.51 ± 0.4 µM
C[C@H](N[C@@H]1c2cc(C#N)ccc2OC(C)(C)[C@H]1O)C(=O)OC(C)(C)C [5a],Exp. LogIC50,[1],-1.47
same,IC50,[2],29.85 ± 0.01 µM
CC(C)[C@@H]1C(=O)O[C@H]2[C@@H](c3cc(C#N)ccc3OC2(C)C)N1C [18a],IC50,[3],77.6 µM
same,IC50,[2],79.27 ± 0.05 µM
C[C@H]1C(=O)O[C@@H]2[C@H](c3cc(C#N)ccc3OC2(C)C)N1C [15b],Exp. LogIC50,[1],-1.46
same,IC50,[2],28.93 ± 0.15 µM
CC(C)[C@@H](CO)N(C)[C@@H]1c2cc(C#N)ccc2OC(C)(C)[C@H]1O [20a],Exp. LogIC50,[1],-0.74
same,IC50,[2],5.46 ± 0.24 µM
CC(C)[C@@H](C(=O)OC(C)(C)C)N(C)[C@H]1c2cc(C#N)ccc2OC(C)(C)[C@@H]1O [9b],factor more active than corresponding unsubstituted analogs 6a and 6b,,2
same,Exp. LogIC50,[1],-0.13
same,IC50,[2],1.35 ± 0.003 µM
C[C@@H]1N[C@@H]2c3cc(C#N)ccc3OC(C)(C)[C@H]2OC1=O [12a],Exp. LogIC50,[1],-3.09
same,IC50,[2],1241.6 ± 0.04 µM
same,"factor less active than diastereomeric 4aR,10bS analogue 12b","ratio of P-gp inhibitory potency (IC50), 12a versus 12b",15
C[C@H]1C(=O)O[C@H]2[C@@H](c3cc(C#N)ccc3OC2(C)C)N1C [15a],Exp. LogIC50,[1],-1.68
same,IC50,[2],47.8 ± 0.91 µM
CC(C)[C@H]1CO[C@@H]2[C@@H](N1)c1cc(C#N)ccc1OC2(C)C [21b],IC50,[3],43.7 µM
same,IC50,[2],44 ± 0.03 µM
CC(C)[C@@H](C(=O)OC(C)(C)C)N(C)[C@@H]1c2cc(C#N)ccc2OC(C)(C)[C@H]1O [9a],factor more active than corresponding unsubstituted analogs 6a and 6b,,2
same,Exp. LogIC50,[1],0.02
same,IC50,[2],0.96 ± 0.06 µM
C[C@@H](C(=O)OC(C)(C)C)N(C)[C@H]1c2cc(C#N)ccc2OC(C)(C)[C@@H]1O [8b],Exp. LogIC50,[1],-0.57
same,IC50,[2],3.72 ± 0.03 µM
CC(C)[C@H](N[C@H]1c2cc(C#N)ccc2OC(C)(C)[C@@H]1O)C(=O)OC(C)(C)C [6b],Exp. LogIC50,[1],-0.43
same,IC50,[2],2.7 ± 0.02 µM
C[C@@H](C(=O)OC(C)(C)C)N(C)[C@@H]1c2cc(C#N)ccc2OC(C)(C)[C@H]1O [8a],Exp. LogIC50,[1],-0.60
same,IC50,[2],3.96 ± 0.06 µM
CC1(C)Oc2ccc(C#N)cc2[C@H]2N[C@@H](Cc3ccccc3)C(=O)O[C@@H]21 [14a],Exp. LogIC50,[1],-0.42
same,IC50,[2],2.68 ± 0.18 µM
same,more active than diastereomer 14b,"ratio of P-gp inhibitory potency (IC50), 14a versus 14b",two orders of magnitude more active
CC(C)[C@@H](CCl)N(C)[C@H]1c2cc(C#N)ccc2OC(C)(C)[C@@H]1O [22b],Exp. LogIC50,[1],-1.65
same,IC50,[2],45.17 ± 0.05 µM
CC(C)[C@H]1N[C@H]2c3cc(C#N)ccc3OC(C)(C)[C@@H]2OC1=O [17b],IC50,[3],9.55 µM
same,IC50,[2],9.63 ± 0.08 µM
CC(C)[C@@H]1N[C@@H]2c3cc(C#N)ccc3OC(C)(C)[C@H]2OC1=O [13a],Exp. LogIC50,[1],-1.18
same,IC50,[2],15.3 ± 0.32 µM
C[C@@H]1N[C@H]2c3cc(C#N)ccc3OC(C)(C)[C@@H]2OC1=O [12b],Exp. LogIC50,[1],-1.88
same,IC50,[2],76.89 ± 0.06 µM
C[C@H](N[C@H]1c2cc(C#N)ccc2OC(C)(C)[C@@H]1O)C(=O)OC(C)(C)C [5b],Exp. LogIC50,[1],-1.16
same,IC50,[2],14.55 ± 0.05 µM
CC(C)[C@@H](N[C@@H]1c2cc(C#N)ccc2OC(C)(C)[C@H]1O)C(=O)OC(C)(C)C [10a],Exp. LogIC50,[1],-0.66
same,IC50,[2],4.62 ± 0.31 µM
CC(C)[C@H]1C(=O)O[C@@H]2[C@H](c3cc(C#N)ccc3OC2(C)C)N1C [16b],IC50,[3],16.6 µM
same,IC50,[2],16.7 ± 0.2 µM
CC(C)[C@H](C(=O)OC(C)(C)C)N(C)[C@@H]1c2cc(C#N)ccc2OC(C)(C)[C@H]1O [11a],Exp. LogIC50,[1],-0.004
same,IC50,[2],1.01 ± 0.02 µM
CC(C)[C@@H]1N[C@H]2c3cc(C#N)ccc3OC(C)(C)[C@@H]2OC1=O [13b],Exp. LogIC50,[1],-1.77
same,IC50,[2],59.3 ± 0.6 µM
CC(C)[C@H](C(=O)OC(C)(C)C)N(C)[C@H]1c2cc(C#N)ccc2OC(C)(C)[C@@H]1O [11b],Exp. LogIC50,[1],0.005
same,IC50,[2],1 ± 0.05 µM
